Experimental findings from US20090156577A1, “7-AMINO ALKYLIDENYL-HETEROCYCLIC QUINOLONES AND NAPHTHYRIDONES” (priority 2004, published 2009) are described below.

As usually defined, the MIC is the lowest concentration found to suppress growth.

≈ marks a conversion by molar mass, not a printed value. Like-named read-outs stand apart in the source and are kept apart here.

The test system of the assay is pathogenic bacteria. The assay is described as follows: MIC by microdilution broth method (NCCLS M7-A4), in vitro antibacterial activity. The assay is classed as cell-based. The essentials: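 Broth microdilution per NCCLS M7-A4: two-fold serial dilutions in cation-adjusted Mueller-Hinton broth, inoculum about 5×10^4 CFU/well. Trays incubated 16–20 h at 35 °C. MIC read by comparing growth against no-compound growth controls.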
A general note: In broth dilution the organism is exposed to a series of concentrations in liquid medium.

Setting [1] is: Staphylococcus aureus, Organism A: Staphylococcus aureus OC4172, read-out: MIC.
[2] abbreviates: Streptococcus pneumoniae, ATCC49619, Organism E: Streptococcus pneumoniae ATCC 49619, read-out: MIC.
[3] abbreviates: Streptococcus pneumoniae, Organism B: fluoroquinolone-resistant clinical isolate of Streptococcus pneumoniae (QRDR amino acid substitutions).
[4] abbreviates: Streptococcus pneumoniae, Organism C: fluoroquinolone-resistant clinical isolate of Streptococcus pneumoniae (QRDR amino acid substitutions).
Where [5] appears, read: Streptococcus pneumoniae, Organism D: fluoroquinolone-resistant clinical isolate of Streptococcus pneumoniae (QRDR amino acid substitutions).

Turning to `COc1c(N2CCC(=C(Cl)CN3CCOCC3)CC2)c(F)cc2c(=O)c(C(=O)O)cn(C3CC3)c12` [Compound 195, 7-[4-(1-Chloro-2-morpholin-4-yl-ethylidene)-piperidin-1-yl]-1-cyclopropyl-6-fluoro-8-methoxy-4-oxo-1,4-dihydro-quinoline-3-carboxylic acid], the MIC was 0.12 µg/mL (≈ 0.237 µM) under setting [1]; 1 µg/mL (≈ 1.98 µM) under setting [2]; 8 µg/mL (≈ 15.8 µM) under setting [3]; 8 µg/mL (≈ 15.8 µM) under setting [4]; 2 µg/mL (≈ 3.95 µM) under setting [5].

For `N#C/C(CN)=C1\CCCN(c2nc3c(cc2F)c(=O)c(C(=O)O)cn3C2CC2)C1` [Compound 441, (E)-7-[3-(2-Amino-1-cyano-ethylidene)-piperidin-1-yl]-1-cyclopropyl-6-fluoro-4-oxo-1,4-dihydro-[1,8]naphthyridine-3-carboxylic Acid], the minimum inhibitory concentration (MIC) is 0.5 µg/mL (≈ 1.26 µM) under setting [1]; 8 µg/mL (≈ 20.1 µM) under setting [2]; 8 µg/mL (≈ 20.1 µM) under setting [3]; above 16 µg/mL under setting [4]; above 16 µg/mL under setting [5].

Turning to `COc1c(N2CCC/C(=C(\Cl)CN)C2)c(F)cc2c(=O)c(C(=O)O)cn([C@@H]3C[C@@H]3F)c12` [Compound 407, (E)-7-[3-(2-Amino-1-chloro-ethylidene)-piperidin-1-yl]-6-fluoro-(1R,2S)-1-(2-fluoro-cyclopropyl)-8-methoxy-4-oxo-1,4-dihydro-quinoline-3-carboxylic acid], the MIC is at most 0.015 µg/mL under setting [1]; 0.03 µg/mL (≈ 0.0661 µM) under setting [2]; 0.03 µg/mL (≈ 0.0661 µM) under setting [3]; 0.25 µg/mL (≈ 0.551 µM) under setting [4]; 0.12 µg/mL (≈ 0.264 µM) under setting [5].

Turning to `C[C@H]1COc2c(N3CC(=C(Cl)CN)C3)c(F)cc3c(=O)c(C(=O)O)cn1c23` [Compound 77, 9-[3-(2-Amino-1-chloro-ethylidene)-azetidin-1-yl}-8-fluoro-(3S)-3-methyl-6-oxo-2,3-dihydro-6H-1-oxa-3a-aza-phenalene-5-carboxylic acid], the MIC under setting [1] was 0.12 µg/mL (≈ 0.305 µM); the MIC under setting [2] was determined as 1 µg/mL (≈ 2.54 µM); the MIC under setting [3] was 8 µg/mL (≈ 20.3 µM); the lowest concentration to inhibit growth under setting [4] (MIC) was 16 µg/mL (≈ 40.6 µM); inhibition of growth under setting [5] (MIC) required 16 µg/mL (≈ 40.6 µM).

Take `NCC=C1CCN(c2nc3c(cc2F)c(=O)c(C(=O)O)cn3C2CC2)CC1` [Compound 59, 7-[4-(2-Amino-ethylidene)-piperidin-1-yl]-1-cyclopropyl-6-fluoro-4-oxo-1,4-dihydro-[1,8]naphthyridine-3-carboxylic acid]: the MIC was 0.06 µg/mL (≈ 0.161 µM) under setting [1], 0.5 µg/mL (≈ 1.34 µM) under setting [2], 8 µg/mL (≈ 21.5 µM) under setting [3] and 8 µg/mL (≈ 21.5 µM) under setting [4].

Turning to `NC/C(F)=C1\CCCN(c2c(F)cc3c(=O)c(C(=O)O)cn(-c4nc(N)c(F)cc4F)c3c2Cl)C1` [Compound 411, (Z)-1-(6-Amino-3,5-difluoro-pyridin-2-yl)-7-[3-(2-amino-1-fluoro-ethylidene)-piperidin-1-yl]-8-chloro-6-fluoro-4-oxo-1,4-dihydro-quinoline-3-carboxylic acid], the MIC is, setting by setting: under setting [1], 0.06 µg/mL (≈ 0.117 µM); under setting [2], 1 µg/mL (≈ 1.95 µM); under setting [3], above 16 µg/mL; under setting [4], above 16 µg/mL; under setting [5], 16 µg/mL (≈ 31.3 µM).

On to `COc1c(N2CC(=C(C)CN)C2)c(F)cc2c(=O)c(C(=O)O)cn([C@@H]3C[C@@H]3F)c12` [Compound 368, 7-[3-(2-Amino-1-methyl-ethylidene)-azetidin-1-yl]-6-fluoro-(1R,2S)-1-(2-fluoro-cyclopropyl)-8-methoxy-4-oxo-1,4-dihydro-quinoline-3-carboxylic Acid], for which the MIC runs as follows: under setting [1], 0.25 µg/mL (≈ 0.617 µM); under setting [2], 1 µg/mL (≈ 2.47 µM); under setting [3], 8 µg/mL (≈ 19.7 µM); under setting [4], above 16 µg/mL; under setting [5], 8 µg/mL (≈ 19.7 µM).

In the case of `CC1(C)CN(c2nc3c(cc2F)c(=O)c(C(=O)O)cn3C2CC2)CCC1=C(F)CN` [Compound 175, 7-[4-(2-Amino-1-fluoro-ethylidene)-3,3-dimethyl-piperidin-1-yl]-1-cyclopropyl-6-fluoro-4-oxo-1,4-dihydro-[1,8]naphthyridine-3-carboxylic acid], the MIC is, setting by setting: under setting [1], 0.5 µg/mL (≈ 1.19 µM); under setting [2], 0.25 µg/mL (≈ 0.597 µM); under setting [3], 2 µg/mL (≈ 4.78 µM); under setting [4], 2 µg/mL (≈ 4.78 µM); under setting [5], 1 µg/mL (≈ 2.39 µM).

Consider `COc1c(N2CCC(=C(F)CN)CC2)c(F)cc2c(=O)c(C(=O)O)cn(C3CC3)c12` [Compound 12, (E)-7-[4-(2-Amino-1-fluoro-ethylidene)-piperidin-1-yl]-1-cyclopropyl-7-6-fluoro-8-methoxy-4-oxo-1,4-dihydro-quinoline-3-carboxylic acid], for which the MIC turned out to be 0.12 µg/mL (≈ 0.286 µM) (Organism A: Staphylococcus aureus OC4172); 2 µg/mL (≈ 4.77 µM) (Organism B: fluoroquinolone-resistant clinical isolate of Streptococcus pneumoniae (QRDR amino acid substitutions)); 4 µg/mL (≈ 9.54 µM) (Organism C: fluoroquinolone-resistant clinical isolate of Streptococcus pneumoniae (QRDR amino acid substitutions)); 4 µg/mL (≈ 9.54 µM) (Organism D: fluoroquinolone-resistant clinical isolate of Streptococcus pneumoniae (QRDR amino acid substitutions)); 0.5 µg/mL (≈ 1.19 µM) (Organism E: Streptococcus pneumoniae ATCC 49619).

`COc1c(N2CCC/C(=C(\F)CN)C2)c(F)c(C)c2c(=O)c(C(=O)O)cn(C3CC3)c12` [Compound 458, 7-[(E)-3-(2-Amino-1-fluoro-ethylidene)-piperidin-1-yl]-1-cyclopropyl-6-fluoro-8-methoxy-5-methyl-4-oxo-1,4-dihydro-quinoline-3-carboxylic Acid]: the MIC is, setting by setting: under setting [1], at most 0.015 µg/mL; under setting [2], 0.06 µg/mL (≈ 0.138 µM); under setting [3], 0.03 µg/mL (≈ 0.0692 µM); under setting [4], 0.25 µg/mL (≈ 0.577 µM); under setting [5], 0.25 µg/mL (≈ 0.577 µM).

Turning to `COc1c(N2CC(=C(C)CN)C2)c(F)cc2c(=O)c(C(=O)O)cn(C3CC3)c12` [Compound 391, 7-[3-(2-Amino-1-methyl-ethylidene)-azetidin-1-yl]-1-cyclopropyl-6-fluoro-8-methoxy-4-oxo-1,4-dihydro-quinoline-3-carboxylic acid], the MIC is 0.06 µg/mL (≈ 0.155 µM) under setting [1]; 2 µg/mL (≈ 5.16 µM) under setting [2]; 8 µg/mL (≈ 20.6 µM) under setting [3]; above 16 µg/mL under setting [4]; 8 µg/mL (≈ 20.6 µM) under setting [5].

For `NCC(F)=C1CN(c2nc3c(cc2F)c(=O)c(C(=O)O)cn3C2CC2)C1` [Compound 80, 7-[3-(2-Amino-1-fluoro-ethylidene)-azetidin-1-yl]-1-cyclopropyl-6-fluoro-4-oxo-1,4-dihydro-[1,8]naphthyridine-3-carboxylic acid], the MIC was 0.06 µg/mL (≈ 0.166 µM) under setting [1]; 0.12 µg/mL (≈ 0.331 µM) under setting [2]; 0.5 µg/mL (≈ 1.38 µM) under setting [3]; 2 µg/mL (≈ 5.52 µM) under setting [4]; 1 µg/mL (≈ 2.76 µM) under setting [5].

With `CNC/C(Cl)=C1/CCCN(c2cc3c(cc2F)c(=O)c(C(=O)O)cn3C2CC2)C1.Cl` [Compound 428, (E)-7-[3-(1-Chloro-2-methylamino-ethylidene)-piperidin-1-yl]-1-cyclopropyl-6-fluoro-4-oxo-1,4-dihydroquinoline-3-carboxylic Acid Hydrochloride Salt], the MIC is, setting by setting: under setting [1], 0.25 µg/mL; under setting [2], 1 µg/mL; under setting [3], above 16 µg/mL; under setting [4], above 16 µg/mL; under setting [5], above 16 µg/mL.

In the case of `C/C(CN)=C1/CCCN(c2nc3c(cc2F)c(=O)c(C(=O)O)cn3-c2ccc(F)cc2F)C1` [Compound 381, (E)-7-[3-(2-Amino-1-methyl-ethylidene)-piperidin-1-yl]-1-(2,4-difluoro-phenyl)-6-fluoro-4-oxo-1,4-dihydro-[1,8]naphthyridine-3-carboxylic acid], the MIC was 0.5 µg/mL (≈ 1.09 µM) under setting [1]; 4 µg/mL (≈ 8.73 µM) under setting [2]; 4 µg/mL (≈ 8.73 µM) under setting [3]; above 16 µg/mL under setting [4]; above 16 µg/mL under setting [5].

For `O=C(O)c1cn(C2CC2)c2nc(N3CCC(=C(F)CO)CC3)c(F)cc2c1=O` [Compound 172, 1-Cyclopropyl-6-fluoro-7-[4-(1-fluoro-2-hydroxy-ethylidene)-piperidin-1-yl]-4-oxo-1,4-dihydro-[1,8]naphthyridine-3-carboxylic acid], the MIC under setting [1] came to 0.06 µg/mL (≈ 0.153 µM), the MIC under setting [2] worked out at 1 µg/mL (≈ 2.56 µM), the MIC under setting [3] was found to be 32 µg/mL (≈ 81.8 µM) and the MIC under setting [4] was found to be 16 µg/mL (≈ 40.9 µM).

Take `CC(C)NCC(Cl)=C1CCN(c2nc3c(cc2F)c(=O)c(C(=O)O)cn3C2CC2)CC1` [Compound 166, 7-[4-(1-Chloro-2-isopropylamino-ethylidene)-piperidin-1-yl]-1-cyclopropyl-6-fluoro-4-oxo-1,4-dihydro-[1,8]naphthyridine-3-carboxylic acid]: the MIC is, setting by setting: under setting [1], 0.5 µg/mL (≈ 1.11 µM); under setting [2], 1 µg/mL (≈ 2.23 µM); under setting [4], 4 µg/mL (≈ 8.91 µM); under setting [5], 4 µg/mL (≈ 8.91 µM).

`NC/C=C1/CCCN(c2nc3c(cc2F)c(=O)c(C(=O)O)cn3C2CC2)C1` [Compound 375, (Z)-7-[3-(2-Amino-ethylidene)-piperidin-1-yl]-1-cyclopropyl-6-fluoro-4-oxo-1,4-dihydro-[1,8]naphthyridine-3-carboxylic acid]: the MIC is, setting by setting: under setting [1], 0.12 µg/mL (≈ 0.322 µM); under setting [2], 8 µg/mL (≈ 21.5 µM); under setting [3], above 16 µg/mL; under setting [4], above 16 µg/mL; under setting [5], above 16 µg/mL.

Take `COc1c(N2CCC(=C(F)CCN)CC2)c(F)cc2c(=O)c(C(=O)O)cn(C3CC3)c12` [Compound 467, 7-{4-[3-Amino-1-fluoro-propylidene]-piperidin-1-yl}-1-cyclopropyl-6-fluoro-8-methoxy-4-oxo-1,4-dihydro-quinoline-3-carboxylic Acid]: the MIC is, setting by setting: under setting [1], 0.12 µg/mL (≈ 0.277 µM); under setting [2], 0.5 µg/mL (≈ 1.15 µM); under setting [3], 0.5 µg/mL (≈ 1.15 µM); under setting [4], 4 µg/mL (≈ 9.23 µM); under setting [5], 1 µg/mL (≈ 2.31 µM).

For the compound `COc1c(N2CCC(=C(F)CN)CC2)ccc2c(=O)c(C(=O)O)cn(C3CC3)c12` [Compound 10, 7-[4-(2-Amino-1-fluoro-ethylidene)-piperidin-1-yl]-1-cyclopropyl-8-methoxy-4-oxo-1,4-dihydro-quinoline-3-carboxylic acid], the MIC amounted to 0.03 µg/mL (≈ 0.0747 µM) under setting [1], 0.12 µg/mL (≈ 0.299 µM) under setting [2], 0.5 µg/mL (≈ 1.25 µM) under setting [4] and 1 µg/mL (≈ 2.49 µM) under setting [5].
